Results as given in US20210073352A9, “SYSTEM AND METHOD FOR DRUG TARGET AND BIOMARKER DISCOVERY AND DIAGNOSIS USING A MULTIDIMENSIONAL MULTISCALE MODULE MAP” (Data4Cure, Inc., priority 2015, published 2021).
Entries after “also recorded” stand apart in the source; their conditions may differ.

Tested on: 504 cancer cell lines
Assay: Drug sensitivity (IC50 index) of cancer cell lines with versus without a mutation in a module, compared by T-test
Format: cell-based
Details: for T-Statistic, sensitivity to drug vs mutation in module: T-test of IC50 scores, cell lines with vs without mutation
Source text: An inference engine can be used to identify an association between drug sensitivity of a sample and module activity or mutation status. For example, by using a statistical test to compare the IC 50 indexes or other measures of drug sensitivity known to those skilled in the art, for two or more classes of samples determined by the presence or absence of a mutation within a module of interest or determined by a module feature (e.g. high or low activity). A statistical test, such as, for example, a T-test or Wilcoxon test or another test known to those skilled in the art can be used to compare the IC50 scores across two sets of samples. By way of example and not of limitation, an ANOVA analysis can be used to compare such scores over two or more classes of samples.
Change in drug sensitivity conditional on sample class determined by module activity or mutation status can be computed, for example, by using a statistical test by comparing, for example, the IC 50 indexes or other measures of drug sensitivity known to those skilled in the art, for two or more classes of samples. A statistical test, such as, for example, a T-test or Wilcoxon test or another test known to those skilled in the art can be used to compare the IC50 scores across two sets of samples. By way of example and not of limitation, an ANOVA analysis can be used to compare such scores over two or more classes of samples.
The Broad GDAC Firehose provides publicly-available preprocessed TCGA level 3 data and level 4 analyses packaged in a form amenable to immediate algorithmic intake (Marx, V. et al. Nat. Methods 10, 293-297 (2013); incorporated by reference in its entirety). From this resource gene mutations were obtained, copy-number variants and mRNA expression levels (microarray and RNAseq) for human subjects as well as selected clinical data such as overall patient survival and the list of administered oncology drugs for each patient were also obtained. Molecular data (including somatic mutations) as well as drug sensitivity data for 504 cancer cell lines were obtained, deposited and made publicly available by the Sage Bionetworks Synapse platform (Friend, S. et al. Cancer Discov. 2, 658 (2012); hereby incorporated by reference in its entirety).
A multidimensional multiscale map was generated where module colors indicate the change in drug sensitivity depending on the mutation status of a given module (i.e. module can contain a mutation in one of the genes or not) [FIG. 11]. The change is computed by comparing drug sensitivity for samples with or without mutations within genes belonging to a module. Drug sensitivity was measured by the IC 50 index (Soothill, J. S. et al. J. Antimicrob. Chemother. 29, 137-139 (1992); hereby incorporated by reference in its entirety). A T-test was used to compare the IC50 scores across two sets of samples. […] Cell lines with a relevant mutation are indicated as “1” in the boxplot and tend to have lower IC 50 values indicating higher sensitivity to AZD6244.

[1] = mutations in genes of module 16157
[2] = mutations in genes of module 16873
[3] = mutations in genes of module 17552
[4] = mutations in genes of module 17611

Row | Structure (SMILES) | T-Statistic, sensitivity to drug vs mutation in module (mutation in module 16157) | T-Statistic, sensitivity to drug vs mutation in module (mutation in module 16873) | T-Statistic, sensitivity to drug vs mutation in module (mutation in module 17552) | T-Statistic, sensitivity to drug vs mutation in module (mutation in module 17611) | change in drug sensitivity with module mutation [1] | change in drug sensitivity with module mutation [2] | change in drug sensitivity with module mutation [3] | change in drug sensitivity with module mutation [4] | change in drug sensitivity with module mutation (module number 17454 as printed, FIG. 11)
1 | O=C(NOC[C@H](O)CO)c1ccc(F)c(F)c1Nc1ccc(I)cc1F [PD.0325901] | −6.692 | −10.52 | −8.774 | −7.111 | more sensitive | more sensitive | more sensitive | more sensitive | 
2 | Cn1cnc2c(F)c(Nc3ccc(Br)cc3Cl)c(C(=O)NOCCO)cc21 [AZD6244] | −6.876 | −9.937 | −8.56 | −7.071 | more sensitive | more sensitive | increased sensitivity; also recorded: more sensitive | more sensitive | increased sensitivity
